The values below come from ChEMBL document CHEMBL1201862, “PubChem BioAssay data set” (2004).

Among the test systems are EKVX; NCI-H460; COLO 205; SF-268; IGROV-1; A549; RXF 393; SF-295; SK-MEL-28; HT-29; OVCAR-8; SK-OV-3; Malme-3M; SF-539; HOP-62; NCI-H23; LOX IMVI; CCRF-CEM; SNB-75; UACC-62.
What all share (experiment): NCI tumour cell line growth inhibition, 48 h

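These data come from cells grown in 96-well plates and exposed to compound for 48 hours at five concentrations. Here, GI50 denotes the concentration required for 50% inhibition of growth.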 The source made the active and inactive calls. Cut-off read from the data, not from the text of the source: active = GI50 up to about 1.1 µM and inactive = higher. Where only a bound is given, the exact number is not on record here.

As to `COC(Cc1cc(C(O)(c2ccc(C(C)(C)C)cc2)c2cc(CC(OC)(c3cc(C(OC)(c4ccc(C(C)(C)C)cc4)c4ccc(C(C)(C)C)cc4)c(C)cc3C)c3cc(C(OC)(c4ccc(C(C)(C)C)cc4)c4ccc(C(C)(C)C)cc4)c(C)cc3C)c(C)cc2C)c(C)cc1C)(c1cc(C(OC)(c2ccc(C(C)(C)C)cc2)c2ccc(C(C)(C)C)cc2)c(C)cc1C)c1cc(C(OC)(c2ccc(C(C)(C)C)cc2)c2ccc(C(C)(C)C)cc2)c(C)cc1C`, the GI50 in the assay with EKVX, in the assay with NCI-H460, with COLO 205, with SF-268, in the assay on IGROV-1 and with A549 was > 75 µM (inactive) each time. In addition, the GI50 in the assay with RXF 393, in the assay on SF-295, in the assay with SK-MEL-28, with HT-29, in the assay with OVCAR-8 and in the assay with SK-OV-3 was > 75 µM (inactive) throughout. For the same compound, the GI50 in the assay with Malme-3M, with SF-539, in the assay with HOP-62, in the assay with NCI-H23, with LOX IMVI and in the assay with CCRF-CEM was > 75 µM (inactive) each time. The GI50 in the assay on SNB-75 and in the assay with UACC-62 was > 75 µM (inactive) in each case.

`Cc1nc2c(c(=O)[nH]1)S/C(=C(/C#N)c1nc3ccccc3[nH]1)N2c1ccccc1`: the GI50 in the assay on EKVX, with NCI-H460, in the assay with COLO 205, with SF-268, in the assay with IGROV-1 and with A549 was > 100 µM (inactive) each time. In addition, the GI50 in the assay on RXF 393, in the assay with SF-295, in the assay with SK-MEL-28, in the assay on HT-29, with OVCAR-8 and in the assay with SK-OV-3 was > 100 µM (inactive) throughout. Further, the GI50 with Malme-3M, with SF-539, with HOP-62, with NCI-H23, in the assay on CCRF-CEM and in the assay on SNB-75 was > 100 µM (inactive) throughout. Moreover, the GI50 in the assay with UACC-62 was > 100 µM (inactive).

Regarding `O=C(CCl)NNC1=Nc2ccc(Cl)cc2SC1`, the GI50 in the assay on EKVX was 2.07 µM (inactive); with NCI-H460, 6.79 µM (inactive); in the assay with COLO 205, 1.94 µM (inactive); in the assay on SF-268 it was 1.69 µM (inactive); in the assay with IGROV-1 it was 1.95 µM (inactive); in the assay with A549, 9.33 µM (inactive). Besides, the GI50 in the assay with RXF 393 was 1.9 µM (inactive); with SF-295, 15.1 µM (inactive); in the assay with SK-MEL-28 it was 2.03 µM (inactive); in the assay with HT-29, 1.85 µM (inactive); in the assay on OVCAR-8, 1.4 µM (inactive); in the assay on SK-OV-3, 6.61 µM (inactive). Also, the GI50 was 1.69 µM (inactive) in the assay with Malme-3M; 2.02 µM (inactive) with SF-539; 17.7 µM (inactive) in the assay with HOP-62; 2.47 µM (inactive) with NCI-H23; 1.14 µM (inactive) in the assay on LOX IMVI; 0.612 µM (active) in the assay with CCRF-CEM. The GI50 in the assay with SNB-75 was 2.16 µM (inactive); in the assay on UACC-62, 2.12 µM (inactive).

With `CN(C(=O)c1ccccc1)c1ccc2c(c1)C(=O)c1ccccc1C2=O`, the GI50 with EKVX, with NCI-H460, in the assay with COLO 205, in the assay with SF-268, in the assay with IGROV-1 and in the assay with RXF 393 was > 100 µM (inactive) in each case. The GI50 with SF-295, in the assay with SK-MEL-28, in the assay with HT-29, in the assay with OVCAR-8, in the assay on SK-OV-3 and in the assay with Malme-3M was > 100 µM (inactive) each time. Moreover, the GI50 with HOP-62, with NCI-H23, in the assay with LOX IMVI, with CCRF-CEM and in the assay with UACC-62 was > 100 µM (inactive) in each case.

Consider `CSc1nc2c(ncn2C2OCC(O)C(O)C2O)c(=O)[nH]1` (stereo unspecified), for which the GI50 with EKVX, with NCI-H460, with COLO 205, in the assay with SF-268, in the assay on IGROV-1 and in the assay on A549 was > 100 µM (inactive) in each case. Besides, the GI50 with RXF 393, with SF-295, in the assay with SK-MEL-28, in the assay on HT-29, in the assay on OVCAR-8 and with SK-OV-3 was > 100 µM (inactive) in each case. Besides, the GI50 in the assay on Malme-3M, in the assay on SF-539, with HOP-62, in the assay on NCI-H23, in the assay on LOX IMVI and in the assay on CCRF-CEM was > 100 µM (inactive) each time. The GI50 in the assay on SNB-75 and in the assay on UACC-62 was > 100 µM (inactive) each time.

With `Cc1ccc([N+](=O)[O-])cc1S(=O)(=O)Nc1ccc(C2=NNC(c3ccccc3O)C2)cc1` (stereo unspecified), the GI50 in the assay with EKVX was 20.9 µM (inactive); with NCI-H460, 25.7 µM (inactive); in the assay on COLO 205, 24.7 µM (inactive); in the assay on SF-268, 32.1 µM (inactive); in the assay with IGROV-1, 40.7 µM (inactive); with A549, 24.9 µM (inactive). The GI50 with RXF 393 is 15.2 µM (inactive); in the assay with SF-295, 31.7 µM (inactive); in the assay on SK-MEL-28, 26.9 µM (inactive); with HT-29, 28.8 µM (inactive); in the assay on OVCAR-8 it was 56 µM (inactive); in the assay with SK-OV-3 it was 25.1 µM (inactive). In addition, the GI50 in the assay on Malme-3M was 25.9 µM (inactive); in the assay with SF-539, 40.8 µM (inactive); with HOP-62, 21.1 µM (inactive); in the assay with NCI-H23, 20.6 µM (inactive); in the assay with LOX IMVI it was 34.8 µM (inactive); in the assay with CCRF-CEM, 16.6 µM (inactive). Also, the GI50 was 33.2 µM (inactive) in the assay with SNB-75 and 17.6 µM (inactive) in the assay with UACC-62.

Take `CN/N=C(\C(=O)Nc1ccc(C)c(C)c1)C(C(=O)OC)c1nc2ccc([N+](=O)[O-])cc2nc1O` (stereo unspecified): the GI50 with EKVX was 60.5 µM (inactive); in the assay with NCI-H460, > 100 µM (inactive); with COLO 205, > 100 µM (inactive); in the assay on SF-268 it was > 100 µM (inactive); with IGROV-1, > 100 µM (inactive); with A549 it was > 100 µM (inactive). The GI50 in the assay on RXF 393, in the assay on SF-295, in the assay with SK-MEL-28, with HT-29, in the assay on OVCAR-8 and with SK-OV-3 was > 100 µM (inactive) each time. The GI50 in the assay on SF-539, with HOP-62, in the assay on NCI-H23, with LOX IMVI, in the assay on CCRF-CEM and in the assay with SNB-75 was > 100 µM (inactive) in each case. Further, in the assay on UACC-62, the GI50 was 83.8 µM (inactive).

In the case of `CCCCCn1cc2c3c(cccc31)C1C=C(C)CN(C)[C@@H]1C2.Cc1ccc(C(=O)OC(C(=O)O)C(OC(=O)c2ccc(C)cc2)C(=O)O)cc1` (stereo unspecified), the GI50 is 10.8 µM (inactive) in the assay on EKVX; 3.89 µM (inactive) in the assay with NCI-H460; 3.38 µM (inactive) in the assay on COLO 205; 11 µM (inactive) with SF-268; 8.22 µM (inactive) in the assay with IGROV-1; 9.33 µM (inactive) with A549. The GI50 in the assay with RXF 393 was 5.78 µM (inactive); with SF-295, 6.17 µM (inactive); in the assay on SK-MEL-28, 6.93 µM (inactive); in the assay on HT-29, 3.4 µM (inactive); in the assay with OVCAR-8 it was 12.3 µM (inactive); in the assay on SK-OV-3, 9.93 µM (inactive). Moreover, the GI50 in the assay with Malme-3M is 2.56 µM (inactive); in the assay on SF-539 it was 9.95 µM (inactive); in the assay on HOP-62 it was 12.7 µM (inactive); with NCI-H23 it was 3.37 µM (inactive); with LOX IMVI, 6.47 µM (inactive); in the assay on CCRF-CEM, 4.25 µM (inactive). In addition, the GI50 is 5.42 µM (inactive) in the assay with SNB-75 and 5.25 µM (inactive) in the assay with UACC-62.

Regarding `O=C1OC2(CC1C1(O)C3CC4CC(C3)CC1C4)C1CC3CC(C1)CC2C3` (stereo unspecified), the GI50 in the assay on NCI-H460 was 32.1 µM (inactive); in the assay with SF-268, > 100 µM (inactive); in the assay on IGROV-1, 77.6 µM (inactive); in the assay with A549 it was 56.4 µM (inactive); in the assay with RXF 393, > 100 µM (inactive); in the assay with SF-295 it was 14.5 µM (inactive). Besides, the GI50 is > 100 µM (inactive) in the assay on SK-MEL-28; > 100 µM (inactive) in the assay with HT-29; 35.1 µM (inactive) in the assay on OVCAR-8; 58.3 µM (inactive) in the assay with Malme-3M; > 100 µM (inactive) in the assay with SF-539; > 100 µM (inactive) with NCI-H23. The GI50 is 27.9 µM (inactive) with LOX IMVI, 85.1 µM (inactive) in the assay with CCRF-CEM, 40.8 µM (inactive) with SNB-75 and > 100 µM (inactive) with UACC-62.

As to `O=c1c(C(c2ccccc2)c2c(O)oc3cc(O)ccc3c2=O)c(O)oc2cc(O)ccc12`, the GI50 in the assay on EKVX, in the assay on NCI-H460, in the assay with COLO 205, in the assay on SF-268, in the assay on IGROV-1 and in the assay with A549 was > 100 µM (inactive) each time. In addition, the GI50 with RXF 393, in the assay on SF-295, in the assay on SK-MEL-28, in the assay on HT-29, in the assay with OVCAR-8 and in the assay with SK-OV-3 was > 100 µM (inactive) throughout. The GI50 in the assay with Malme-3M, in the assay with SF-539, in the assay on HOP-62, in the assay on NCI-H23, in the assay on LOX IMVI and in the assay with CCRF-CEM was > 100 µM (inactive) in each case. Besides, the GI50 with SNB-75 and with UACC-62 was > 100 µM (inactive) each time.
